Tests used:
[1] = tested on: PD1-ss+10aa/Gaussia Luciferase; experiment: Dox-Induced PD1-ss-Gluc Assay; type: cell-based; conditions: 24 hr Dox induction; 293FRT/TO cells; read-out: 24 hr Dox Inducible PD1ssGluc 293FRT/TO: Mean IC50
Outline: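 Gaussia luciferase fused downstream of the PD1 signal peptide plus 10 residues was expressed on doxycycline induction in stably transfected Flp-In 293 T-REx cells. Compounds were added with doxycycline and incubated at 37 °C, 5% CO2.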

[2] = Liver Microsome Stability Assay (human); conditions: human liver microsomes, with NADPH, 1.0 uM compound
Experimental: (§1) Stability of a compound was assessed in the presence of liver microsomes from various sources—mouse, rat, monkey and human liver microsomes. 1.0 uM compound, 0.4% DMSO in 0.1 M Potassium Phosphate with 1.0 mg/mL liver microsomes, were incubated at 37° C. with or without 1 mM NADPH. The samples were quenched at 0, and 30 minutes.

[3] = tested on: TNFα-FL/Gaussia Luciferase; experiment: Dox Induced TNFα-FL-Gluc Assay; type: cell-based; conditions: for IC50: 24 hr Dox induction, 293FRT/TO cells, read-out: 24 hr Dox Inducible TNFaFLGluc 293FRT/TO: Mean IC50; for 24 hr Dox Inducible TNFaFLGluc 293FRT/TO: TNF/PD1: ratio of TNFaFLGluc IC50 to PD1ssGluc IC50
Outline: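 Cells are seeded one day ahead, then treated with compound plus doxycycline at 37 °C, 5% CO2. The stable Flp-In 293 T-REx line expresses full-length TNFα (amino acids 1-233) with Gaussia luciferase fused to its 3′ end, inducibly via T-REx.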

[4] = Liver Microsome Stability Assay (rat); conditions: rat liver microsomes, with NADPH, 1.0 uM compound
Experimental: as §1

[5] = tested on: HER3-ss+4aa/Gaussia Luciferase; experiment: Dox-Induced Her3-ss-Gluc Assay; type: cell-based; conditions: 24 hr Dox induction; 293FRT/TO cells; read-out: 24 hr Dox Inducible Her3(ss + 4)Gluc 293FRT/TO: Mean IC50
Outline: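 Expression of a Gaussia luciferase reporter carrying the HER3 signal sequence plus 4 amino acids is induced by doxycycline in stably transfected Flp-In 293 T-REx cells. Compounds are added with doxycycline at 37° C., 5% CO2. Undefined stereocentres denote stereoisomer mixtures.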

[6] = tested on: multiple myeloma cell line U266B1; experiment: U266 Cell Viability Assay; type: cell-based, human; conditions: Homo sapiens, U-266, 48 h, U266B1 cells, Celltiter-Glo
Outline: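 48 h treatment, 37° C./5% CO2, RPMI 1640 + 10% FBS; viability by CellTiter-Glo luminescence.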

[7] = Liver Microsome Stability Assay (monkey); conditions: monkey liver microsomes, with NADPH, 1.0 uM compound
Experimental: as §1

[8] = Liver Microsome Stability Assay (mouse); conditions: mouse liver microsomes, with NADPH, 1.0 uM compound
Experimental: as §1

[9] = tested on: multiple myeloma cell line NCI-H929; experiment: H929 Cell Viability Assay; type: cell-based, human; conditions: Homo sapiens, NCI-H929, 48 h, NCI-H929 cells, Celltiter-Glo
Outline: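 Plate the myeloma cells in RPMI 1640 with 10% FBS, add serially diluted compound, incubate for 48 hours at 37° C, then add CellTiter-Glo and read luciferase signal.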

[10] = tested on: IL-2-FL/Gaussia Luciferase; experiment: Dox Induced IL2-FL-Gluc Assay; type: cell-based; conditions: for IC50: 24 hr Dox induction, 293FRT/TO cells, read-out: 24 hr Dox Inducible IL2FLGluc 293FRT/TO: Mean IC50; for 24 hr Dox Inducible IL2FLGluc 293FRT/TO: IL2/PD1: ratio of IL2FLGluc IC50 to PD1ssGluc IC50
Outline: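 Reporter is Gaussia luciferase fused to the 3′ end of full-length IL-2 (aa 1-153), expressed from a doxycycline-inducible T-REx construct in stably selected Flp-In 293 cells. Compounds were co-added with doxycycline and incubated at 37° C, 5% CO2.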

| SMILES | IC50 [1] [nM] | Liver Microsome Stability (Multiple Species): Human - % Remaining after 30 min w/NADPH [2] [%] | IC50 [3] [nM] | Liver Microsome Stability (Multiple Species): Rat - % Remaining after 30 min w/NADPH [4] [%] | IC50 [5] [nM] | EC50 [6] [µM] | Liver Microsome Stability (Multiple Species): Monkey - % Remaining after 30 min w/NADPH [7] [%] | Liver Microsome Stability (Multiple Species): Mouse - % Remaining after 30 min w/NADPH [8] [%] | EC50 [9] [nM] | IC50 [10] [nM] | 24 hr Dox Inducible TNFaFLGluc 293FRT/TO: TNF/PD1 [3] | 24 hr Dox Inducible IL2FLGluc 293FRT/TO: IL2/PD1 [10] |
| --- | --- | --- | --- | --- | --- | --- | --- | --- | --- | --- | --- | --- |
| O=C(Nc1nc([C@H]2CCCN2c2ccccc2)cs1)c1cccn1Cc1cc(F)nc(F)c1 [Compound A60, (R)-1-((2,6-difluoropyridin-4-yl)methyl)-N-(4-(1-phenylpyrrolidin-2-yl)thiazol-2-yl)-1H-pyrrole-2-carboxamide] | 63.8 | 13.7 | 861 | 19.7 | 131 | > 25 | 23.8 | 48.3 | 4720 | 186 | 13.5 | 2.9 |
| O=C(Nc1nc([C@H]2CCCN2c2ccc(C3CCCNC3)cc2)cs1)c1cccn1Cc1ccncc1 (stereo partly drawn) [Compound A61, N-(4-((2R)-1-(4-(piperidin-3-yl)phenyl)pyrrolidin-2-yl)thiazol-2-yl)-1-(pyridin-4-ylmethyl)-1H-pyrrole-2-carboxamide] | 917 | 2.45 | 11600 | 22.8 | 1570 | 5.52 | 5.11 | 54.5 | 6290 | 3220 | 12.7 | 3.5 |
| CC(=O)N1CCC(Oc2ccc(N3CCC[C@@H]3c3csc(NC(=O)c4cccn4Cc4ccnc(F)c4)n3)cc2)CC1 [Compound A62, (R)-N-(4-(1-(4-((1-acetylpiperidin-4-yl)oxy)phenyl)pyrrolidin-2-yl)thiazol-2-yl)-1-((2-fluoropyridin-4-yl)methyl)-1H-pyrrole-2-carboxamide] | 15 | 34.3 | 251 | 45.1 | 35.7 | > 25 | 21.4 | 52.7 | 373 | 29.8 | 16.7 | 2 |
| CC(=O)N1CCCC(c2ccc(N3CCC[C@@H]3c3csc(NC(=O)c4cccn4Cc4ccncc4)n3)cc2)C1 (stereo partly drawn) [Compound A63, N-(4-((2R)-1-(4-(1-acetylpiperidin-3-yl)phenyl)pyrrolidin-2-yl)thiazol-2-yl)-1-(pyridin-4-ylmethyl)-1H-pyrrole-2-carboxamide] | 80 | 2.22 | 1060 | 6.07 | 130 | > 25 | 1.18 | 3.64 | 1780 | 149 | 13.2 | 1.9 |

Now from value to compound, other results behind:

| IC50 [1] [nM] | Liver Microsome Stability (Multiple Species): Human - % Remaining after 30 min w/NADPH [2] [%] | IC50 [3] [nM] | Liver Microsome Stability (Multiple Species): Rat - % Remaining after 30 min w/NADPH [4] [%] | IC50 [5] [nM] | EC50 [6] [µM] | Liver Microsome Stability (Multiple Species): Monkey - % Remaining after 30 min w/NADPH [7] [%] | Liver Microsome Stability (Multiple Species): Mouse - % Remaining after 30 min w/NADPH [8] [%] | EC50 [9] [nM] | IC50 [10] [nM] | SMILES | 24 hr Dox Inducible TNFaFLGluc 293FRT/TO: TNF/PD1 [3] | 24 hr Dox Inducible IL2FLGluc 293FRT/TO: IL2/PD1 [10] |
| --- | --- | --- | --- | --- | --- | --- | --- | --- | --- | --- | --- | --- |
| 10.6 | 1.39 | 164 | 6.39 | 19.4 | > 25 | 0.78 | 13.7 | 203 | 27 | CC(=O)NCc1ccc(N2CCC[C@@H]2c2csc(NC(=O)c3cccn3Cc3ccnc(F)c3)n2)cc1 [Compound A64, (R)-N-(4-(1-(4-(acetamidomethyl)phenyl)pyrrolidin-2-yl)thiazol-2-yl)-1-((2-fluoropyridin-4-yl)methyl)-1H-pyrrole-2-carboxamide] | 15.4 | 2.5 |
| 2.11 | 22.1 | 65.5 | 1.1 | 6.49 | > 25 | 0.35 | 7.68 | 81.2 | 7.99 | NC(=O)c1ccc(N2CCC[C@@H]2c2csc(NC(=O)c3cccn3Cc3ccnc(F)c3)n2)cc1 [Compound A65, (R)-N-(4-(1-(4-carbamoylphenyl)pyrrolidin-2-yl)thiazol-2-yl)-1-((2-fluoropyridin-4-yl)methyl)-1H-pyrrole-2-carboxamide] | 31 | 3.8 |
| 27.2 | 2.98 | 584 | 5.19 | 59.7 | > 25 | 2.72 | 30 | 416 | 69 | CC(=O)N[C@H](C)c1ccc(N2CCC[C@@H]2c2csc(NC(=O)c3cccn3Cc3ccncc3)n2)cc1 [Compound A66, N-(4-((R)-1-(4-((R)-1-acetamidoethyl)phenyl)pyrrolidin-2-yl)thiazol-2-yl)-1-(pyridin-4-ylmethyl)-1H-pyrrole-2-carboxamide] | 21.5 | 2.5 |
| 23.6 | 28.9 | 862 | 51.9 | 65.1 | 6.86 | 40.4 | 82.3 | 562 | 55 | C[C@@H](N)c1ccc(N2CCC[C@@H]2c2csc(NC(=O)c3cccn3Cc3ccncc3)n2)cc1 [Compound A67, N-(4-((R)-1-(4-((R)-1-aminoethyl)phenyl)pyrrolidin-2-yl)thiazol-2-yl)-1-(pyridin-4-ylmethyl)-1H-pyrrole-2-carboxamide] | 36.4 | 2.3 |
| 2.32 | 25.8 | 44.1 | 16.9 | 4.98 | > 25 | 11.8 | 27.5 | 44.6 | 6.04 | CC(=O)Nc1ccc(N2CCC[C@@H]2c2csc(NC(=O)c3cccn3Cc3ccnc(F)c3)n2)cc1 [Compound A68, (R)-N-(4-(1-(4-acetamidophenyl)pyrrolidin-2-yl)thiazol-2-yl)-1-((2-fluoropyridin-4-yl)methyl)-1H-pyrrole-2-carboxamide] | 19 | 2.6 |

From patent US20230286973A1, “PROTEIN SECRETION INHIBITORS” (KEZAR LIFE SCIENCES, priority 2020, published 2023)
